Reference: patent EP0408806A1, “Antihypercholesterolemic agents” (MERCK & CO. INC., priority 1989, dated 1991)

Target: T1, HMG-CoA reductase (Rattus norvegicus, UniProt P51639)
T1 sequence (P51639 1-887): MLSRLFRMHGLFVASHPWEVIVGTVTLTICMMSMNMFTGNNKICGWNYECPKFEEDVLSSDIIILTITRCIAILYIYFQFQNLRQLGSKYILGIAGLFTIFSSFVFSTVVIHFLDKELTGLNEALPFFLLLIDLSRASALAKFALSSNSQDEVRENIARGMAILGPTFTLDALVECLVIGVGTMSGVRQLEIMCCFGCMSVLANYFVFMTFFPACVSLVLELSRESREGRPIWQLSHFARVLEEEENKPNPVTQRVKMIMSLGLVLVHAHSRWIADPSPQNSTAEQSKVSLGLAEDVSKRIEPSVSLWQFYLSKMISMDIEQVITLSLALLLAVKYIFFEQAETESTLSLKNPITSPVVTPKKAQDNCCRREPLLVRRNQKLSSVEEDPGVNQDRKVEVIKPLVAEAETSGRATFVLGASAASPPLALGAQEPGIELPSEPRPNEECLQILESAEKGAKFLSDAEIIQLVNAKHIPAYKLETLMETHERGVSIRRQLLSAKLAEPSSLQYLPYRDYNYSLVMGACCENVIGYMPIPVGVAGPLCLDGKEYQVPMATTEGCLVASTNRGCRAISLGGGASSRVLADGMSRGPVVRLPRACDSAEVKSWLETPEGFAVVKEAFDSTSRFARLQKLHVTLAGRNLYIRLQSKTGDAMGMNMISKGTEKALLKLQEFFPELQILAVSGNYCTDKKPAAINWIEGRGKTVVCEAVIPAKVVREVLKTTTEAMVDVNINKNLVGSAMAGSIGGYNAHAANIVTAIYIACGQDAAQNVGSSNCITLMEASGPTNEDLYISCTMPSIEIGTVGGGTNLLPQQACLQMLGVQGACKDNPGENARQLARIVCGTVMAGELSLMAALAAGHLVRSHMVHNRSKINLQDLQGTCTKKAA
Test: intrinsic HMG-CoA reductase inhibition, in vitro protocol published in J. Med. Chem., 28, p. 347-358 (1985)
Assay type: biochemical
Details: read-out: IC₅₀ value (converted)
Protocol: The intrinsic HMG-CoA reductase inhibition activity of the claimed compounds is measured in the in vitro protocol published in J. Med. Chem., 28, p. 347-358 (1985).

IC50: 4.62 nM
SMILES: CCC(C)(C)C(=O)OC1CC(C)=CC2=CC(=O)C(C)C(CCC3CC(O)CC(=O)O3)C21 [6(R)-[2-[8(S)-(2,2-dimethylbutyryloxy)-2(S),6-dimethyl-3-oxo-1,2,7,8,8a(R)-pentahydronaphthyl-1(S)]ethyl]-4(R)-hydroxy-3,4,5,6-tetrahydro-2H-pyran-2-one]
